Test results taken from US20110224210A1, “NOVEL BIS-AMIDES AS ANTI-MALARIAL AGENTS” (priority 2008, published 2011).

Tested on: P. falciparum K1 (strain resistant to chloroquine and pyrimethamine), erythrocytic stages
Assay: Plasmodium falciparum in vitro assay, [3H] hypoxanthine incorporation
Type: cell-based
Settings: Plasmodium falciparum, K1, P. falciparum strain K1; [3H] hypoxanthine incorporation; read-out: IC50 (nM) on K1
Method in brief: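 K1 strain parasites grown in human red cells, 2.5% haematocrit, 0.3% parasitaemia, 37 °C, 4% CO2/3% O2; compounds in seven serial doubling dilutions.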

| SMILES | IC50 |
| --- | --- |
| COCCN(C)C(=O)[C@H](Cc1ccccc1)N(Cc1ccc(N2CCOCC2)cc1)C(=O)C=Cc1csnn1 [Example 66, (S)-N-{1-[(2-Methoxy-ethyl)-methyl-carbamoyl]-2-phenyl-ethyl}-N-(4-morpholin-4-yl-benzyl)-3-[1,2,3]thiadiazol-4-yl-acrylamide] | 494 nM |
| COCCN(C)C(=O)[C@H](Cc1ccccc1)N(Cc1ccc(N2CCOCC2)cc1)C(=O)C=Cc1ccc(C(F)(F)F)cn1 [Example 67, (S)-N-{1-[(2-Methoxy-ethyl)-methyl-carbamoyl]-2-phenyl-ethyl}-N-(4-morpholin-4-yl-benzyl)-3-(5-trifluoromethyl-pyridin-2-yl)-acrylamide] | < 8 nM |
| COCCN(C)C(=O)[C@H](Cc1ccccc1)N(Cc1ccc(N2CCOCC2)cc1)C(=O)C=Cc1ccc(C)cn1 [Example 68, (S)-N-{1-[(2-Methoxy-ethyl)-methyl-carbamoyl]-2-phenyl-ethyl}-3-(5-methyl-pyridin-2-yl)-N-(4-morpholin-4-yl-benzyl)-acrylamide] | 156 nM |
| COCCN(C)C(=O)[C@H](Cc1ccccc1)N(Cc1ccc(N2CCOCC2)cc1)C(=O)C=Cc1ccc(C)nc1 [Example 69, (S)-N-{1-[(2-Methoxy-ethyl)-methyl-carbamoyl]-2-phenyl-ethyl}-3-(6-methyl-pyridin-3-yl)-N-(4-morpholin-4-yl-benzyl)-acrylamide] | 169 nM |
| COCCN(C)C(=O)[C@H](Cc1ccccc1)N(Cc1ccc(N2CCOCC2)cc1)C(=O)C=Cc1ccc(Cl)nc1 [Example 70, (S)-3-(6-Chloro-pyridin-3-yl)-N-{1-[(2-methoxy-ethyl)-methyl-carbamoyl]-2-phenyl-ethyl}-N-(4-morpholin-4-yl-benzyl)-acrylamide] | 144 nM |
| COCCN(C)C(=O)[C@H](Cc1ccccc1)N(Cc1ccc(N2CCOCC2)cc1)C(=O)C=Cc1ccc(OC)nc1 [Example 71, (S)-N-{1-[(2-Methoxy-ethyl)-methyl-carbamoyl]-2-phenyl-ethyl}-3-(6-methoxy-pyridin-3-yl)-N-(4-morpholin-4-yl-benzyl)-acrylamide] | 54 nM |
| COCCN(C)C(=O)[C@H](Cc1ccccc1)N(Cc1ccc(N2CCOCC2)cc1)C(=O)C=Cc1cnc(OC)nc1 [Example 72, (S)-N-{1-[(2-Methoxy-ethyl)-methyl-carbamoyl]-2-phenyl-ethyl}-3-(2-methoxy-pyrimidin-5-yl)-N-(4-morpholin-4-yl-benzyl)-acrylamide] | 344 nM |
| COCCN(C)C(=O)[C@H](Cc1ccccc1)N(Cc1ccc(-c2ccccn2)cc1)C(=O)C=Cc1ccn(C)n1 [Example 73, (S)-N-{1-[(2-Methoxy-ethyl)-methyl-carbamoyl]-2-phenyl-ethyl}-3-(1-methyl-1H-pyrazol-3-yl)-N-(4-pyridin-2-yl-benzyl)-acrylamide] | 156 nM |
| COCCN(C)C(=O)[C@H](Cc1ccccc1)N(Cc1ccc(-c2ccccn2)cc1)C(=O)C=Cc1cc(C)nn1C [Example 74, (S)-3-(2,5-Dimethyl-2H-pyrazol-3-yl)-N-{1-[(2-methoxy-ethyl)-methyl-carbamoyl]-2-phenyl-ethyl}-N-(4-pyridin-2-yl-benzyl)-acrylamide] | 40 nM |
| COCCN(C)C(=O)[C@H](Cc1ccccc1)N(Cc1ccc(-c2ccccn2)cc1)C(=O)C=Cc1c(C)nn(C)c1C [Example 75, (S)-N-{1-[(2-Methoxy-ethyl)-methyl-carbamoyl]-2-phenyl-ethyl}-N-(4-pyridin-2-yl-benzyl)-3-(1,3,5-trimethyl-1H-pyrazol-4-yl)-acrylamide] | 11 nM |
| COCCN(C)C(=O)[C@H](Cc1ccccc1)N(Cc1ccc(-c2ccccn2)cc1)C(=O)C=Cc1cnc(C)n1C [Example 76, (S)-3-(2,3-Dimethyl-3H-imidazol-4-yl)-N-{1-[(2-methoxy-ethyl)-methyl-carbamoyl]-2-phenyl-ethyl}-N-(4-pyridin-2-yl-benzyl)-acrylamide] | 163 nM |
| COCCN(C)C(=O)[C@H](Cc1ccccc1)N(Cc1ccc(-c2ccccn2)cc1)C(=O)C=Cc1sc(C)nc1C [Example 77, (S)-3-(2,4-Dimethyl-thiazol-5-yl)-N-{1-[(2-methoxy-ethyl)-methyl-carbamoyl]-2-phenyl-ethyl}-N-(4-pyridin-2-yl-benzyl)-acrylamide] | 23 nM |
| COCCN(C)C(=O)[C@H](Cc1ccccc1)N(Cc1ccc(-c2ccccn2)cc1)C(=O)C=Cc1csc(C)n1 [Example 78, (S)-N-{1-[(2-Methoxy-ethyl)-methyl-carbamoyl]-2-phenyl-ethyl}-3-(2-methyl-thiazol-4-yl)-N-(4-pyridin-2-yl-benzyl)-acrylamide] | 47 nM |
| COCCN(C)C(=O)[C@H](Cc1ccccc1)N(Cc1ccc(-c2ccccn2)cc1)C(=O)C=Cc1cc(C)on1 [Example 79, (S)-N-{1-[(2-Methoxy-ethyl)-methyl-carbamoyl]-2-phenyl-ethyl}-3-(5-methyl-isoxazol-3-yl)-N-(4-pyridin-2-yl-benzyl)-acrylamide] | 288 nM |
| COCCN(C)C(=O)[C@H](Cc1ccccc1)N(Cc1ccc(-c2ccccn2)cc1)C(=O)C=Cc1c(C)noc1C [Example 80, (S)-3-(3,5-Dimethyl-isoxazol-4-yl)-N-{1-[(2-methoxy-ethyl)-methyl-carbamoyl]-2-phenyl-ethyl}-N-(4-pyridin-2-yl-benzyl)-acrylamide] | 44 nM |
| COCCN(C)C(=O)[C@H](Cc1ccccc1)N(Cc1ccc(-c2ccccn2)cc1)C(=O)C=Cc1nc(C)oc1C [Example 81, (S)-3-(2,5-Dimethyl-oxazol-4-yl)-N-{1-[(2-methoxy-ethyl)-methyl-carbamoyl]-2-phenyl-ethyl}-N-(4-pyridin-2-yl-benzyl)-acrylamide] | 102 nM |
| COCCN(C)C(=O)[C@H](Cc1ccccc1)N(Cc1ccc(-c2ccccn2)cc1)C(=O)C=Cc1ccc(OC)nn1 [Example 82, (S)-N-{1-[(2-Methoxy-ethyl)-methyl-carbamoyl]-2-phenyl-ethyl}-3-(6-methoxy-pyridazin-3-yl)-N-(4-pyridin-2-yl-benzyl)-acrylamide] | 99 nM |
| COCCN(C)C(=O)[C@H](Cc1ccccc1)N(Cc1ccc(-c2ccccn2)cc1)C(=O)C=Cc1cnc(C)nc1 [Example 83, (S)-N-{1-[(2-Methoxy-ethyl)-methyl-carbamoyl]-2-phenyl-ethyl}-3-(2-methyl-pyrimidin-5-yl)-N-(4-pyridin-2-yl-benzyl)-acrylamide] | 209 nM |
| COCCN(C)C(=O)[C@H](Cc1ccccc1)N(Cc1ccc(-c2ccccn2)cc1)C(=O)C=Cc1ccc(C)nc1 [Example 84, (S)-N-{1-[(2-Methoxy-ethyl)-methyl-carbamoyl]-2-phenyl-ethyl}-3-(6-methyl-pyridin-3-yl)-N-(4-pyridin-2-yl-benzyl)-acrylamide] | 27 nM |
| COCCN(C)C(=O)[C@H](Cc1ccccc1)N(Cc1ccc(-c2ccccn2)cc1)C(=O)C=Cc1ccc(Cl)nc1 [Example 85, (S)-3-(6-Chloro-pyridin-3-yl)-N-{1-[(2-methoxy-ethyl)-methyl-carbamoyl]-2-phenyl-ethyl}-N-(4-pyridin-2-yl-benzyl)-acrylamide] | 31 nM |
| COCCN(C)C(=O)[C@H](Cc1ccccc1)N(Cc1ccc(-c2ccccn2)cc1)C(=O)C=Cc1ccc(C)cn1 [Example 86, (S)-N-{1-[(2-Methoxy-ethyl)-methyl-carbamoyl]-2-phenyl-ethyl}-3-(5-methyl-pyridin-2-yl)-N-(4-pyridin-2-yl-benzyl)-acrylamide] | 27 nM |
| COCCN(C)C(=O)[C@H](Cc1ccccc1)N(Cc1ccc(-c2ccccn2)cc1)C(=O)C=Cc1ccc(OC)nc1 [Example 87, (S)-N-{1-[(2-Methoxy-ethyl)-methyl-carbamoyl]-2-phenyl-ethyl}-3-(6-methoxy-pyridin-3-yl)-N-(4-pyridin-2-yl-benzyl)-acrylamide] | < 8 nM |
| COCCN(C)C(=O)[C@H](Cc1ccccc1)N(Cc1ccc(-c2ccccn2)cc1)C(=O)C=Cc1cnc(C(F)(F)F)nc1 [Example 88, (S)-N-{1-[(2-Methoxy-ethyl)-methyl-carbamoyl]-2-phenyl-ethyl}-N-(4-pyridin-2-yl-benzyl)-3-(2-trifluoromethyl-pyrimidin-5-yl)-acrylamide] | 45 nM |
| COCCN(C)C(=O)[C@H](Cc1ccccc1)N(Cc1ccc(-c2ccccn2)cc1)C(=O)C=Cc1ccc(C(F)(F)F)cn1 [Example 89, (S)-N-{1-[(2-Methoxy-ethyl)-methyl-carbamoyl]-2-phenyl-ethyl}-N-(4-pyridin-2-yl-benzyl)-3-(5-trifluoromethyl-pyridin-2-yl)-acrylamide] | < 8 nM |
| COCCN(C)C(=O)[C@H](Cc1ccccc1)N(Cc1ccc(-c2ccccn2)cc1)C(=O)C=Cc1cnn(C)c1C [Example 90, (S)-3-(1,5-Dimethyl-1H-pyrazol-4-yl)-N-{1-[(2-methoxy-ethyl)-methyl-carbamoyl]-2-phenyl-ethyl}-N-(4-pyridin-2-yl-benzyl)-acrylamide] | 43 nM |
| COCCN(C)C(=O)[C@H](Cc1ccccc1)N(Cc1ccc(-c2ccncc2)cc1)C(=O)C=Cc1ccn(C)n1 [Example 91, (S)-N-{1-[(2-Methoxy-ethyl)-methyl-carbamoyl]-2-phenyl-ethyl}-3-(1-methyl-1H-pyrazol-3-yl)-N-(4-pyridin-4-yl-benzyl)-acrylamide] | 26 nM |
| COCCN(C)C(=O)[C@H](Cc1ccccc1)N(Cc1ccc(-c2ccncc2)cc1)C(=O)C=Cc1cnc(C)n1C [Example 92, (S)-3-(2,3-Dimethyl-3H-imidazol-4-yl)-N-{1-[(2-methoxy-ethyl)-methyl-carbamoyl]-2-phenyl-ethyl}-N-(4-pyridin-4-yl-benzyl)-acrylamide] | 23 nM |
| COCCN(C)C(=O)[C@H](Cc1ccccc1)N(Cc1ccc(-c2ccncc2)cc1)C(=O)C=Cc1sc(C)nc1C [Example 93, (S)-3-(2,4-Dimethyl-thiazol-5-yl)-N-{1-[(2-methoxy-ethyl)-methyl-carbamoyl]-2-phenyl-ethyl}-N-(4-pyridin-4-yl-benzyl)-acrylamide] | 13 nM |
| COCCN(C)C(=O)[C@H](Cc1ccccc1)N(Cc1ccc(-c2ccncc2)cc1)C(=O)C=Cc1csc(C)n1 [Example 94, (S)-N-{1-[(2-Methoxy-ethyl)-methyl-carbamoyl]-2-phenyl-ethyl}-3-(2-methyl-thiazol-4-yl)-N-(4-pyridin-4-yl-benzyl)-acrylamide] | 15 nM |
